Assays:
rice = assay: Test B flooded paddy test; format: in vivo, Oryza sativa; details: scale 0 to 100 (0 no effect, 100 complete control)
Outline: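 Treated at 2-leaf (paddy) or 1–4-leaf, 2–18 cm (postemergence); greenhouse 13–15 d; visual score vs control, 0 none to 100 complete control; dash = not tested.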

lambsquarters = assay: Test B pre-/postemergence herbicide test; format: in vivo, Chenopodium album
Outline: (§1)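 Herbicidal effect was judged by eye on a 0–100 scale after plants stood 13 to 15 days in the greenhouse following pre- or postemergence treatment with surfactant-containing formulations.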

wild oat = assay: Test B postemergence herbicide test; format: in vivo, Avena fatua
Outline: (§2)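 Read-out: visual comparison with controls, scored 0 to 100, where 100 means complete control and 0 no effect. Formulated chemicals were applied postemergence to plants 2–18 cm tall (1- to 4-leaf), or to flooded-paddy plants at the 2-leaf stage, then held 13 to 15 days under glass.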

wheat = assay: Test B postemergence herbicide test; format: in vivo, Triticum aestivum; design: key to Wheat plant response rating: 0 = no effect, 100 = complete control
Outline: as §2

Surinam grass = assay: Test B pre-/postemergence herbicide test; format: in vivo, Urochloa decumbens; details: for Plant response rating (0 to 100 scale), Surinam Grass: 0 is no effect, 100 is complete control, preemergence
Outline: as §1

barnyardgrass [1] = assay: Test B flooded paddy test; format: in vivo, Echinochloa crus-galli; details: scale 0 to 100 (0 no effect, 100 complete control)
Outline: (§3)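 Scale 0–100: zero equals no visible effect, 100 complete control, judged by eye relative to controls. Timing: 13 to 15 days in greenhouse post-treatment. Growth stage at spraying: two leaves (paddy) or one to four leaves, 2–18 cm (postemergence).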

ducksalad = assay: Test B flooded paddy test; format: in vivo, Heteranthera limosa; details: scale 0 to 100 (0 no effect, 100 complete control)
Outline: as §3

velvetleaf = assay: Test B pre-/postemergence herbicide test; format: in vivo, Abutilon theophrasti; details: for Plant response rating (0 to 100 scale), Velvetleaf: 0 is no effect, 100 is complete control, preemergence
Outline: as §1

pigweed = assay: Test B pre-/postemergence herbicide test; format: in vivo, Amaranthus retroflexus; details: for Plant response rating (0 to 100 scale), Pigweed: 0 is no effect, 100 is complete control, preemergence
Outline: as §1

morningglory = assay: Test B pre-/postemergence herbicide test; format: in vivo, Ipomoea coccinea; details: for Plant response rating (0 to 100 scale), Morningglory: 0 is no effect, 100 is complete control, preemergence
Outline: (§4)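 Formulation: non-phytotoxic solvent mix with surfactant. Timing: preemergence on seed and postemergence on 2–18 cm plants, applied concurrently. Readout after 13–15 d greenhouse: visual 0–100 control rating against controls.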

cocklebur = assay: Test B pre-/postemergence herbicide test; format: in vivo, Xanthium strumarium; details: for Plant response rating (0 to 100 scale), Cocklebur: 0 is no effect, preemergence
Outline: as §4

giant foxtail = assay: Test B pre-/postemergence herbicide test; format: in vivo, Setaria faberi; details: for Plant response rating (0 to 100 scale), Foxtail, Giant: 0 is no effect, preemergence
Outline: as §1

[2] = system: small flower umbrella sedge; assay: Test B flooded paddy test; format: in vivo, Cyperus difformis; details: scale 0 to 100 (0 no effect, 100 complete control)
Outline: as §3

blackgrass = assay: Test B postemergence herbicide test; format: in vivo, Alopecurus myosuroides
Outline: as §3

large crabgrass = assay: Test B pre-/postemergence herbicide test; format: in vivo, Digitaria sanguinalis; details: for Plant response rating (0 to 100 scale), Crabgrass, Large: 0 is no effect, preemergence
Outline: as §1

barnyardgrass [3] = assay: Test B pre-/postemergence herbicide test; format: in vivo, Echinochloa crus-galli; details: for Plant response rating (0 to 100 scale), Barnyardgrass: 0 is no effect, preemergence
Outline: as §4

corn = assay: Test B pre-/postemergence herbicide test; format: in vivo, Zea mays; details: for Plant response rating (0 to 100 scale), Corn: 0 is no effect, preemergence
Outline: as §1

[4] = Postemergence, 500 g ai/ha, scale 0 (no effect) to 100 (complete control)
[5] = postemergence, 125 g ai/ha, scale 0 to 100
[6] = 500 g ai/ha, scale 0 to 100, 0 no effect, 100 complete control, preemergence
[7] = Postemergence, 125 g ai/ha, scale 0 (no effect) to 100 (complete control)
[8] = 125 g ai/ha, 100 is complete control
[9] = 125 g ai/ha, visual rating, scale 0 (no effect) to 100 (complete control), postemergence
[10] = postemergence, 500 g ai/ha, scale 0 to 100, 0 is no effect, 100 is complete control

Structure (SMILES): C=CCN(C(C)=O)C(=O)c1ccc(F)c(NC(=O)c2cc(C(C)(C)C)nn2CC)c1 [Compound 442]
- Rice plant response rating (rice; 125 g ai/ha): 30
- Lambsquarters plant response rating (lambsquarters; [4]): 70
- Lambsquarters plant response rating (lambsquarters; [5]): 40
- Oat, Wild plant response rating (wild oat; [4]): 60
- Oat, Wild plant response rating (wild oat; [5]): 50
- Wheat plant response rating (wheat; [6]): 70
- Wheat plant response rating (wheat; [4]): 40
- Wheat plant response rating (wheat; [5]): 20
- Surinam Grass plant response rating (Surinam grass; [4]): 20
- Surinam Grass plant response rating (Surinam grass; [5]): 20
- Barnyardgrass plant response rating (barnyardgrass [1]; 125 g ai/ha): 0
- Ducksalad plant response rating (ducksalad; 125 g ai/ha): 10
- Velvetleaf plant response rating (velvetleaf; [4]): 30
- Velvetleaf plant response rating (velvetleaf; [5]): 30
- Pigweed plant response rating (pigweed; [4]): 70
- Pigweed plant response rating (pigweed; [5]): 50
- Morningglory plant response rating (morningglory; [4]): 30
- Morningglory plant response rating (morningglory; [5]): 20
- Cocklebur plant response rating (cocklebur; [4]): 100
- Cocklebur plant response rating (cocklebur; [5]): 80
- Foxtail, Giant plant response rating (giant foxtail; [4]): 20
- Foxtail, Giant plant response rating (giant foxtail; [5]): 20
- Sedge, Umbrella plant response rating ([2]; 125 g ai/ha): 70
- Blackgrass plant response rating (blackgrass; [4]): 30
- Blackgrass plant response rating (blackgrass; [5]): 30
- Crabgrass, Large plant response rating (large crabgrass; [4]): 20
- Crabgrass, Large plant response rating (large crabgrass; [5]): 10
- Barnyardgrass plant response rating (barnyardgrass [3]; [7]): 10
- Barnyardgrass plant response rating (barnyardgrass [3]; [4]): 20
- Corn plant response rating (corn; [4]): 30
- Corn plant response rating (corn; [5]): 30

Structure (SMILES): CCc1nn(C(C)(C)C)nc1C(=O)Nc1cccc(C(=O)N2CCCCC2)c1 [Compound 416]
- Rice plant response rating (rice; 1000 g ai/ha): 70
- Lambsquarters plant response rating (lambsquarters; [4]): 80
- Lambsquarters plant response rating (lambsquarters; [5]): 70
- Oat, Wild plant response rating (wild oat; [4]): 40
- Oat, Wild plant response rating (wild oat; [5]): 30
- Wheat plant response rating (wheat; [6]): 60
- Wheat plant response rating (wheat; [4]): 30
- Wheat plant response rating (wheat; [5]): 20
- Plant response rating (0 to 100 scale), Surinam Grass (Surinam grass; 125 g ai/ha): 60
- Surinam Grass plant response rating (Surinam grass; [4]): 30
- Surinam Grass plant response rating (Surinam grass; [5]): 20
- Barnyardgrass plant response rating (barnyardgrass [1]; 1000 g ai/ha): 60
- Ducksalad plant response rating (ducksalad; 1000 g ai/ha): 90
- Plant response rating (0 to 100 scale), Velvetleaf (velvetleaf; 125 g ai/ha): 10
- Velvetleaf plant response rating (velvetleaf; [4]): 50
- Velvetleaf plant response rating (velvetleaf; [5]): 40
- Plant response rating (0 to 100 scale), Pigweed (pigweed; 125 g ai/ha): 70
- Pigweed plant response rating (pigweed; [4]): 80
- Pigweed plant response rating (pigweed; [5]): 60
- Plant response rating (0 to 100 scale), Morningglory (morningglory; 125 g ai/ha): 0
- Morningglory plant response rating (morningglory; [4]): 70
- Morningglory plant response rating (morningglory; [5]): 30
- Plant response rating (0 to 100 scale), Cocklebur (cocklebur; [8]): 0
- Cocklebur plant response rating (cocklebur; [4]): 60
- Cocklebur plant response rating (cocklebur; [5]): 50
- Plant response rating (0 to 100 scale), Foxtail, Giant (giant foxtail; [8]): 70
- Foxtail, Giant plant response rating (giant foxtail; [4]): 30
- Foxtail, Giant plant response rating (giant foxtail; [5]): 20
- Sedge, Umbrella plant response rating ([2]; 1000 g ai/ha): 80
- Blackgrass plant response rating (blackgrass; [4]): 30
- Blackgrass plant response rating (blackgrass; [5]): 20
- Plant response rating (0 to 100 scale), Crabgrass, Large (large crabgrass; [8]): 100
- Crabgrass, Large plant response rating (large crabgrass; [4]): 40
- Crabgrass, Large plant response rating (large crabgrass; [5]): 30
- Plant response rating (0 to 100 scale), Barnyardgrass (barnyardgrass [3]; [8]): 70
- Barnyardgrass plant response rating (barnyardgrass [3]; [7]): 20
- Barnyardgrass plant response rating (barnyardgrass [3]; [4]): 30
- Plant response rating (0 to 100 scale), Corn (corn; [8]): 20
- Corn plant response rating (corn; [4]): 30
- Corn plant response rating (corn; [5]): 20

Structure (SMILES): CCc1nn(C(C)(C)C)nc1C(=O)Nc1cc(C(=O)N2CCCCC2)ccc1F [Compound 381]
- Rice plant response rating (rice; 1000 g ai/ha): 60
- Plant response rating (0 to 100 scale), Lambsquarters (lambsquarters; 125 g ai/ha, 0 is no effect, 100 is complete control, preemergence): 40
- Lambsquarters plant response rating (lambsquarters; [9]): 70
- Lambsquarters plant response rating (lambsquarters; [4]): 80
- Oat, Wild plant response rating (wild oat; [9]): 10
- Oat, Wild plant response rating (wild oat; [4]): 20
- Wheat plant response rating (wheat; [9]): 10
- Wheat plant response rating (wheat; [6]): 20
- Wheat plant response rating (wheat; [4]): 20
- Plant response rating (0 to 100 scale), Surinam Grass (Surinam grass; 125 g ai/ha): 20
- Surinam Grass plant response rating (Surinam grass; [9]): 10
- Surinam Grass plant response rating (Surinam grass; [4]): 40
- Barnyardgrass plant response rating (barnyardgrass [1]; 1000 g ai/ha): 10
- Ducksalad plant response rating (ducksalad; 1000 g ai/ha): 70
- Plant response rating (0 to 100 scale), Velvetleaf (velvetleaf; 125 g ai/ha): 10
- Velvetleaf plant response rating (velvetleaf; [9]): 10
- Velvetleaf plant response rating (velvetleaf; [4]): 40
- Plant response rating (0 to 100 scale), Pigweed (pigweed; 125 g ai/ha): 0
- Pigweed plant response rating (pigweed; [9]): 20
- Pigweed plant response rating (pigweed; [4]): 30
- Plant response rating (0 to 100 scale), Morningglory (morningglory; 125 g ai/ha): 0
- Morningglory plant response rating (morningglory; [9]): 20
- Morningglory plant response rating (morningglory; [4]): 80
- Plant response rating (0 to 100 scale), Cocklebur (cocklebur; [8]): 0
- Cocklebur plant response rating (cocklebur; [9]): 20
- Cocklebur plant response rating (cocklebur; [10]): 20
- Plant response rating (0 to 100 scale), Foxtail, Giant (giant foxtail; [8]): 10
- Foxtail, Giant plant response rating (giant foxtail; [9]): 10
- Foxtail, Giant plant response rating (giant foxtail; [10]): 20
- Sedge, Umbrella plant response rating ([2]; 1000 g ai/ha): 70
- Blackgrass plant response rating (blackgrass; [9]): 20
- Blackgrass plant response rating (blackgrass; [10]): 30
- Plant response rating (0 to 100 scale), Crabgrass, Large (large crabgrass; [8]): 70
- Crabgrass, Large plant response rating (large crabgrass; [9]): 10
- Crabgrass, Large plant response rating (large crabgrass; [10]): 20
- Plant response rating (0 to 100 scale), Barnyardgrass (barnyardgrass [3]; [8]): 10
- Barnyardgrass plant response rating (barnyardgrass [3]; [9]): 0
- Barnyardgrass plant response rating (barnyardgrass [3]; [10]): 0
- Plant response rating (0 to 100 scale), Corn (corn; [8]): 0
- Corn plant response rating (corn; [9]): 0
- Corn plant response rating (corn; [10]): 10

Structure (SMILES): C=CCN(CC=C)C(=O)c1cccc(NC(=O)c2nn(C(C)(C)C)nc2C)n1 [Compound 439]
- Rice plant response rating (rice; 125 g ai/ha): 0
- Lambsquarters plant response rating (lambsquarters; [4]): 0
- Lambsquarters plant response rating (lambsquarters; [5]): 0
- Oat, Wild plant response rating (wild oat; [4]): 10
- Oat, Wild plant response rating (wild oat; [5]): 0
- Wheat plant response rating (wheat; [6]): 0
- Wheat plant response rating (wheat; [4]): 10
- Wheat plant response rating (wheat; [5]): 0
- Surinam Grass plant response rating (Surinam grass; [4]): 0
- Surinam Grass plant response rating (Surinam grass; [5]): 0
- Barnyardgrass plant response rating (barnyardgrass [1]; 125 g ai/ha): 0
- Ducksalad plant response rating (ducksalad; 125 g ai/ha): 0
- Velvetleaf plant response rating (velvetleaf; [4]): 0
- Velvetleaf plant response rating (velvetleaf; [5]): 0
- Pigweed plant response rating (pigweed; [4]): 10
- Pigweed plant response rating (pigweed; [5]): 0
- Morningglory plant response rating (morningglory; [4]): 30
- Morningglory plant response rating (morningglory; [5]): 0
- Cocklebur plant response rating (cocklebur; [4]): 0
- Cocklebur plant response rating (cocklebur; [5]): 0
- Foxtail, Giant plant response rating (giant foxtail; [4]): 0
- Foxtail, Giant plant response rating (giant foxtail; [5]): 0
- Sedge, Umbrella plant response rating ([2]; 125 g ai/ha): 0
- Blackgrass plant response rating (blackgrass; [4]): 10
- Blackgrass plant response rating (blackgrass; [5]): 0
- Crabgrass, Large plant response rating (large crabgrass; [4]): 0
- Crabgrass, Large plant response rating (large crabgrass; [5]): 0
- Barnyardgrass plant response rating (barnyardgrass [3]; [7]): 0
- Barnyardgrass plant response rating (barnyardgrass [3]; [4]): 0
- Corn plant response rating (corn; [4]): 0
- Corn plant response rating (corn; [5]): 0

— US20060069132A1, “Azolecarboxamide herbicides” (priority 2004, published 2006)
